# Like-named read-outs stand apart in the source and are kept apart here.
# Tests used:
# [1] = DLS size determination of 500 ppm RA solutions with gum Arabic (Example 5, FIGS. 7-9); assay type: physicochemical; settings: conclusion of Example 5
# Protocol: This example was for size determination.
# The solutions noted below were filtered with a 0.45 μm membrane.
# Measurements were obtained by DLS after the solution was filtered and allowed to equilibrate for six hours.
# According to FIGS. 7 through 9, it was determined that: […]
# [2] = Saturation of Reb A aqueous solution (Example 3); assay type: physicochemical; settings: water
# Protocol: Three concentrations of Reb A aqueous solutions were prepared: 500 ppm, 0.8% and 2.0%.
# The 0.8% (by weight) is saturated.
# The 2.0% (by weight) is over-saturated. After preparation, Reb A will continue to precipitate slowly and finally result in a 0.8% solution.
# [3] = cited from earlier work; for taste in sensory tests: 100% purity
smiles,measurement,setting,value
"C=C1C[C@@]23CC[C@H]4[C@@](C)(CCC[C@@]4(C)C(=O)O[C@@H]4O[C@H](CO)[C@@H](O)[C@H](O)[C@H]4O)[C@@H]2CC[C@]1(O[C@@H]1O[C@H](CO)[C@@H](O)[C@H](O[C@@H]2O[C@H](CO)[C@@H](O)[C@H](O)[C@H]2O)[C@H]1O[C@@H]1O[C@H](CO)[C@@H](O)[C@H](O)[C@H]1O)C3 [Reb A, Rebaudioside A]",size of micelles that the molecules tend to form in solution,[1],above 1000 nm
same,stability of the solution (aggregation),[1],unstable
same,concentration of the saturated aqueous solution,[2],0.8 % (by weight)
same,taste in sensory tests,[3]; 200 ppm aqueous solution,cannot bring a perfect taste close to sugar
same,taste in sensory tests,"[3]; higher concentrations, for example 500 ppm",bitterness and aftertaste issues appear strongly
same,taste quality (increased sweetness and decreased bitterness),"[3]; Phytochemistry 68, 2007, 1855-1863",better than stevioside
